How the values were obtained:
[1] = target: T1, SdaC (Escherichia coli, UniProt P0AAD6); assay: radiolabelled uptake by whole cells, sdaC+ versus sdaC deletion; type: cell-based; conditions: M9 medium, 0.2% glucose, 37 °C; 100 μM L-serine; strain B2394 versus B2429; labelled compound (14C)
T1 construct: full-length native chromosomal sdaC, no tag; whole-cell uptake in strain lacking the other carriers, compared with its sdaC deletion B2429

[2] = substrate: C[C@@H](O)[C@H](N)C(=O)O; assay: radiolabelled uptake by whole cells, initial velocity, Lineweaver-Burk; type: cell-based, Escherichia coli; conditions: M9 medium, 0.2% glucose, 37 °C, strain B2394[pMW-liv] overexpressing LIV-I, labelled compound (14C)

T1 sequence (P0AAD6 whole entry): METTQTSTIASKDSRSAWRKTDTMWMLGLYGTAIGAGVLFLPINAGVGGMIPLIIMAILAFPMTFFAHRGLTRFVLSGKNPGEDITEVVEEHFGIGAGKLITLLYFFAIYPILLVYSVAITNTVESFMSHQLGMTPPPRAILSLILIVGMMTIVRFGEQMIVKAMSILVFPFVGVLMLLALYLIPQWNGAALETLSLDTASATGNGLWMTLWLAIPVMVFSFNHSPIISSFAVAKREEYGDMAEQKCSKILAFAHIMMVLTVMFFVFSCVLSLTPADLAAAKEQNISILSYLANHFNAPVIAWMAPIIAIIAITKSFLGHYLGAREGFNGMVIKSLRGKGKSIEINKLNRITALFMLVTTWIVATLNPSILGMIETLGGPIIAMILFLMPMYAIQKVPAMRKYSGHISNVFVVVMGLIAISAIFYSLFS

Question: Which “radiolabelled uptake by whole cells, sdaC+ versus sdaC deletion” value [1] does the source give for N[C@@H](CO)C(=O)O [L-serine] here?
Answer: serine transport activity of the B2394 strain possessing SdaC as the sole transporter

B1: LIV-I branched chain amino acid transport system (Escherichia coli K-12) (protein)
chain: EDIKVAVVGAMSGPVAQYGDQEFTGAEQAVADINAKGGIKGNKLQIVKYDDACDPKQAVAVANKVVNDGIKYVIGHLCSSSTQPASDIYEDEGILMITPAATAPELTARGYQLILRTTGLDSDQGPTAAKYILEKVKPQRIAIVHDKQQYGEGLARAVQDGLKKGNANVVFFDGITAGEKDFSTLVARLKKENIDFVYYGGYHPEMGQILRQARAAGLKTQFMGPEGVANVSLSNIAGESAEGLLVTKPKNYDQVPANKPIVDAIKAKKQDPSGAFVWTTYAALQSLQAGLNQSDDPAEIAKYLKANSVDTVMGPLTWDEKGDLKGFEFGVFDWHANGTATDAK
notes: whole-cell uptake, ABC transporter
Question: For B1, which Km [2] is on record?
Answer: 13.0 ± 0.9 µM
